Experimental data from US20240139210A1, “TREATMENT OF NF-KB-MEDIATED DISEASE” (ReveraGen BioPharma, Inc., priority 2020, published 2024).
Read-outs that look alike come from different tables or passages of the source.

Columns and labels:
participants with DMD = settings: CINRG DNHS, deflazacort n = 94, prednisone n = 80; cited from earlier work
boys with DMD [1] = settings: cited from earlier work; for LS Mean change in height percentiles for age: 12-month treatment period, DMD
boys with DMD [2] = test: CINRG 12-month prednisone clinical trial, external comparator; type: in vivo, human; settings: vamorolone 18-month treatment versus prednisone trial 12-month treatment
Experimental: As with the CINRG DNHS comparators, group-matching criteria were prespecified in the iSAP, and 2 independent statisticians carried out the participant matching. […] There was no corresponding 12-month assessment in vamorolone-treated participants. (Assessments of vamorolone-treated trial participants were 0, 3, 6, and 18 months).
Participants in the corticosteroid-treated CINRG DNHS group were treated for at least 18 months, but the total duration, dose, and regimens varied.

[3] = tested on: ambulant boys aged 4 to <7 years with DMD; test: VBP15-004 bone turnover biomarkers; type: in vivo, human; settings: Prednisone 0.75 mg (N = 24)
[4] = tested on: ambulant boys aged 4 to <7 years with DMD; test: VBP15-004 adverse events; parameters: species or system human; settings: male, human, in vivo, 24 weeks
From the text: (§1) The second period of 24 weeks, where all participants receive vamorolone treatment on either of the two dose levels, will continue to capture additional longer-term safety and tolerability data.
The study completion rate at 24 weeks was 94% (or 114 of 121 participants).
Pre-specified AESIs typically for corticosteroids were higher in prednisone-treated subjects than vamorolone-treated subjects after 24 weeks of treatment (Table 10).

[5] = tested on: ambulant boys aged 4 to <7 years with DMD; test: VBP15-004 growth (height Z scores); type: in vivo, human; settings: prednisone 0.75 mg/kg/day
From the text: as §1

[6] = 0.9 mg/kg/day deflazacort (n = 68), 0.75 mg/kg/day prednisone (n = 63)

## CC(=O)OCC(=O)[C@@]12N=C(C)O[C@@H]1C[C@H]1[C@@H]3CCC4=CC(=O)C=C[C@]4(C)[C@H]3[C@@H](O)C[C@@]12C [Deflazacort, deflazacort]
Participants with DMD
  Incidence of physician-reported Cushingoid: 72%
  Incidence of physician-reported behavior change: 33%
  Incidence of physician-reported weight gain: 63%
Boys with DMD [1]; [6]
  Incidence of physician-reported Cushingoid: 60.3%
  Incidence of physician-reported behavior change: 9%
  Incidence of physician-reported hypertrichosis/hirsutism: 35%
  Incidence of physician-reported weight gain: 27.9%
Boys with DMD [1]
  LS Mean change in height percentiles for age: −11.4 percentile
Boys with DMD [1]; listed as deflazacort
  LS Mean change in height percentiles for age: −11.43 percentile

## C[C@]12C=CC(=O)C=C1CC[C@@H]1[C@@H]2C(=O)C[C@@]2(C)[C@H]1CC[C@]2(O)C(=O)CO [Prednisone, prednisone]
Boys with DMD [2]
  Mean BMI z-score, LS mean difference (SE), ANCOVA: 0.066 (0.193)
  Mean height percentile for age, LS mean difference (SE), ANCOVA: 10.37 (3.86) percentile
[3]
  Osteocalcin, mean (SEM) change at Week 24: −15.2 (2.7) ng/ml
  Procollagen 1 N-Terminal Propeptide (P1NP), mean (SEM) change at Week 24: −134 (22) ng/mL
  Type I Collagen C-Telopeptides (CTX), mean (SEM) change at Week 24: −300 (43) pg/mL
[4]
  clinically relevant psychiatric events, subjects: 19.4%
  incidence of behavior problems: 32.3%
  moderate/severe behavior problems, subjects: 22.6%
[5]
  change in height Z scores from baseline to Week 24: growth deceleration
